How the values were obtained:
[1] = tested on: VGCC activity in primary neurons; test: KCl-induced Ca2+ influx (VGCC activity) in primary neurons; type: cell-based, mouse; settings: for inhibition at 10 µM: Mus musculus, Primary neuron, relative to vehicle treated neurons, KCl depolarisation, read-out: % inhibition of cytosolic Ca^2+ influx
Protocol: Examplary compound 6 was tested for its ability to inhibit VGCC activity in primary neurons. Neurons from mouse embryos were harvested and cultured using standard methods (such as used in Schlager et al., 2014. Cell reports, 8(5), pp. 1248-56). To stimulate VGCC activity, neurons were depolarized using 45 mM KCl and incubated with vehicle or 1.5 μM of compound. Calcium influx was measured using fluorescent cytosolic Ca^2+ detection reagent Fura2.
Changes in cytosolic Ca^2+ concentrations were measured after loading the cells with Fura-2 AM (Sigma-Aldrich), a cell permeable fluorescent probe for Ca^2+. Briefly, Fura-2-AM was dissolved in DMSO plus 20% Pluronic Acid (F-127) (Invitrogen) in a 1:1 ratio and diluted in medium to a final concentration of 0.5 μM. Probenecid (Sigma-Aldrich) was added to this loading medium at a final concentration of 2.5 mM. Then, culture medium was replaced by loading medium and after incubation for 1 hour at 37° C. cells were washed twice and replaced with HBSS (Gibco) supplemented with 0.2% FBS and 0.02M HEPES. Next, changes in cytosolic calcium were measured using a FlexStation 3 microplate reader (Molecular Devices) and quantified ratiometric, by calculating changes in the amount of cytosolic Ca^2+ bound Fura-2 (fluorescence intensity at 340 nm) relative to the amount of Ca^2+ unbound Fura-2 (fluorescence intensity at 380 nm). Data was processed in SoftMax Pro 5.4.6 software (Molecular Devices).
Compounds 1-7 were tested at 10 μM for their ability to inhibit Ca^2+ influx in primary neurons (FIG. 5) as described in Example 21 (Table 5). Primary neurons treated with vehicle in which no compound was dissolved was used as a no-effect control. The percentage (%) inhibition of Ca^2+ influx relative to vehicle treated neurons was calculated.

mouse brain slices = test: afterhyperpolarization of single action potentials in mouse brain slices; settings: slices incubated with compound versus vehicle
Protocol: A single spike was elicited by injecting a 2 ms depolarizing current pulse (35 pA) and action potential (AP) parameters were at baseline and after 25 min vehicle or compound perfusion.
Action potentials (AP) after electrical stimulation of mouse brain slices were analysed (FIG. 14).
The experiment was performed as described in Example 24.

[2] = tested on: CA1 pyramidal neurons in tgAPP mouse brain slices; test: firing rate of CA1 neurons in brain slices of tgAPP mice, patch clamp; settings: 2 μM, 1 hr perfusion
Protocol: Brain slices from wild type and tgAPP mice were incubated with DMSO or Compound 6. Neurons were stimulated with increasing currents and the frequency of action potentials was measured.
Acute sagittal brain slices from WT or hAPP mice were prepared by decapitation of the mice after isoflurane anaesthesia. Brains were removed quickly and immersed during 3-4 min in ice-cold freshly prepared cutting artificial cerebrospinal fluid (cutting aCSF) containing (in mM) 214 sucrose, 2.5 KCl, 2 CaCl2), 2 MgSO4, 1.25 NaH2PO2, 26 NaHCO3 and 10 glucose and oxygenated with 95% O2/5% CO2. Sagittal 350 μm slices were generated using a vibratome (VT 1000S; Leica Microsystems) and were incubated in standard carboxygenated aCSF (in mM: 125 NaCl, 2.5 KCl, 2 CaCl2), 2 MgSO4, 1.25 NaH2PO2, 26 NaHCO3 and 10 glucose, osmolarity 305 mOsm) at 34° C. during 20 min. The incubation continued at room temperature (RT) for another hour before each slice was transferred to a submerged recording chamber and perfused continuously with carboxygenated aCSF. […]
Dendritic firing rate of CA1 cells was recorded in response to hyperpolarizing and depolarizing steps (−0.4 to +0.45 nA, steps of 0.05 nA) after a 1 hr perfusion with vehicle or compound at 2 μM. […]

[3] = tested on: transgenic human APP mice; test: Morris Water Maze test in transgenic APP mice; type: in vivo, mouse; settings: 20 mg/kg subcutaneously, daily for 8 weeks, versus vehicle
Protocol: Transgenic human 4-month old APP mice (THE JOURNAL OF BIOLOGICAL […] Vol. 274, No. 10, Issue of March 5, pp. 6483-6492, 1999) were treated subcutaneously, daily for 8 weeks with examplary Compound 6 at 20 mg/kg (FIG. 7). Cognition was assessed using the Morris Water Maze test. […] After the learning phase a probe test was conducted in which the platform was removed from the water bath to evaluate the spatial memory of the location of the platform.
Both indices indicate that compound treated mice have improved cognitive performance almost identical to wild type controls compared to vehicle treated mice.

RAP1A silenced cells = test: TAU-toxicity model in RAP1A silenced cells; type: cell-based, human; settings: compared with non-silenced cells
Protocol: (§1) The detailed method for determining cytotoxicity was as follows: From appropriate precultures of M17-3.1 and M17-TAU(P301L) cells were seeded at 2500 cells/cm2 in Optimem Reduced Serum without phenol red (Gibco, Cat. 31985-047) supplemented with 1% fetal calf serum, 1 mM sodium pyruvate, 1× non-essential amino acids, 500 μg/ml G418 0.5×antibiotic/antimycotic. After 3 hours of incubation at 37° C./5% CO2 1 volume of Optimem Reduced Serum (same as described above; except without fetal calf serum) supplemented with 2.5 μM all-trans retinoic acid (ATRA) was added. The cells were further incubated for 7 days. Subsequently, LDH activity was determined using Promega Cytotox 96 Non-Radioactive cytotoxicity assay, (Cat. G1780) according the supplier's instructions.

PDE6δ silenced cells = test: TAU-toxicity model in PDE6δ silenced cells; type: cell-based, human; settings: compared with non-silenced cells
[4] = tested on: phosphorylated TAU in brain; test: in vivo TAU phosphorylation in brain of transgenic APP*PS1 mice, Western analysis; set-up: species or system mouse; settings: 20 mg/kg daily subcutaneously, 5-month old APP*PS1 mice, versus vehicle
Protocol: Transgenic human 5-month old APP*PS1 mice (The Journal of Neuroscience, Sep. 1, 2000, 20(17):6452-6458) were treated daily subcutaneously with 20 mg/kg Compound 6 or for two weeks with Compound A:
At the end of the treatment period, mice were sacrificed and the corresponding brains were used for biochemical analysis.

M17-TAU P301L cells = test: TAU-toxicity model, LDH leakage of retinoic acid incubated M17-TAU P301L cells; type: cell-based, human; settings: non-silenced cells
Excerpt: A TAU expression plasmid was constructed by sub-cloning the cDNA of human TAU-P301L (encoding for TAU with proline 301 substituted by a leucine residue) into mammalian expression vector pcDNA3.1 resulting in plasmid pcDNA3.1-TAU P301L. Plasmids pcDNA3.1 and pcDNA3.1-TAU P301L were transfected to human neuroblastoma cells ([…]; ATCC No. CRL-2267) and independent clonal lines with the plasmids stably integrated into the genome were selected. […] Expression of the TAU P301L genes in the cell lines was confirmed by Western analysis.
In degenerated or dead cells lactate dehydrogenase (LDH) leaks out of the cells into the extracellular environment due to a loss of plasma-membrane integrity. This principle was used to determine cytotoxicity by quantifying the level of leaked LDH into the growth medium relative to the sum of total LDH activity from living cells and dead cells.
as §1
The M17-TAU P301L cell line made it possible to assess the ability of novel compounds to inhibit PDE6δ and counteract TAU cytotoxicity. […] These measurements were used to calculate EC50 values.

[5] = tested on: primary rat hippocampal neurons; test: ex-vivo inhibition of oligomeric amyloid beta (Aβo/ADDL) toxicity in primary neurons; type: cell-based; settings: 100 ng/mL, 1000 nM ADDL, 24 h
Protocol: An exemplary compound of this invention was tested for its ability to inhibit toxicity elicited by oligomeric amyloid beta (Aβo). Neurons from rat embryos were harvested and cultured using standard methods (such as used in Schlager et al., 2014. Cell reports, 8(5), pp. 1248-56.). Differentiated neurons were challenged with Aβo and viability was quantified.
At day in-vitro 19 days after isolation primary hippocampal neurons were transfected with Marcks-GFP in order to visualize the neurons with fluorescence microscopy.
ADDL (Abeta-derived diffusible ligands) preparation (representing Aβo) was done according to Klein (Klein, 2002. Neurochemistry international, 41(5), pp. 345-52.). Abeta 1-42 was purchased from AnaSpec Inc. and dissolved in HFIP to homogenize the peptide. HFIP was then evaporated in a speedvac and Abeta film was dried at −20° C. overnight over desiccant. Abeta film was then resolubilised in 100% DMSO and further diluted (1/25) in Ham's F12 medium. Blanks were prepared by adding equal amounts of DMSO to Ham's F12 medium. Abeta and Blank solutions were incubated overnight at 4° C.
At day in-vitro 21 primary rat hippocampal neurons were treated with equal volume of Blank/ADDL solution amounting to 0 and 1000 nM ADDL. Cultures were kept at 37° C. 5% CO2 for 24 h before PFA fixation. Viability was assessed using the Live-Dead assay from Thermo Fisher Catalog number: L3224.

RAP1A binding on PDE6δ = target: T1, RAP1A binding on PDE6δ (Homo sapiens, UniProt O43924); test: PDE6δ-STREP/HA pull-down from HEK293 cells with quantitative mass spectrometry of interactors; type: cell-based; settings: 1 hour incubation of 1 μM
T1 construct: expressed in transfected cells
Excerpt: PDE6δ together with associated proteins was precipitated from a cellular extract either in the presence or absence of Compound A:
Using mass spectrometry based techniques interacting proteins were quantitatively identified in function of compound presence (FIG. 11).
In the absence of Compound A a host of interacting proteins were identified including known interactors such as Arl3 and RPGR. […] This effect is highly specific since a non-prenylated interactor of PDE6δ such as Arl3 which bind PDE6δ via different mechanisms is not impacted.
The cDNA encoding human PDE6δ was fused with a STREP-HA tag encoding DNA sequence and expressed in HEK293 cells using a standard expression vector. The bait sequence was verified by sequencing. […] Bait expression and solubility was monitored by immunoblotting using anti-HA antibodies. […]
Affinity purification and mass spectrometrical analysis of PDE6δ-strep-HA expressed in HEK293 cells was performed with three biological replicates for label free quantitative mass spectrometrical analysis. The samples were analyzed on a Thermo LTQ Orbitrap XL spectrometer using a C18 column, ESI and a 60 min gradient. The signals' intenstity are provided as 2 Log values and correlates to the concentration of the detected mass (number/amount of peptide). […]

T1 sequence (O43924 whole entry): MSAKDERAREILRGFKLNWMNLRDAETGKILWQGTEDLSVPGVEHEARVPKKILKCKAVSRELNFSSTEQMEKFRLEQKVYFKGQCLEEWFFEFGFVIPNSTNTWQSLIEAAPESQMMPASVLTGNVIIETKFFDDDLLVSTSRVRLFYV

Q: For `O=C(NCCc1c[nH]c2ccc(F)cc12)c1cc(Cc2ccc(F)cc2F)on1` [Compound 1], which inhibition at 10 µM [1] is on record?
A: 43%

Q: With `O=C(NCCc1c[nH]c2ccc(F)cc12)c1cc(Cc2ccc(F)c(F)c2)on1` [Compound 2] as the compound, how does the inhibition at 10 µM [1] read?
A: 48%

Q: For `O=C(NCCc1c[nH]c2ccc(F)cc12)c1cc(Cc2cc(F)cc(F)c2)on1` [Compound 3], which inhibition at 10 µM [1] is on record?
A: 42%

Q: For `O=C(NCCc1c[nH]c2ccc(F)cc12)c1cc(Cc2ccc(F)cc2)on1` [Compound 4], which inhibition at 10 µM [1] is on record?
A: 39%

Q: `O=C(NCCc1c[nH]c2ccc(F)cc12)c1cc(Cc2cccc(F)c2F)on1` [Compound 5] was tested. Which inhibition at 10 µM [1] did it give?
A: 42%

Q: What does the source list for `O=C(NCCc1c[nH]c2ccc(F)cc12)c1cc(Cc2cc(F)ccc2F)on1` [Compound 6]?
A: afterhyperpolarization of action potentials (mouse brain slices): increased; frequency of action potentials at high stimulation [2]: significantly lowered the frequency towards wild type level; Ca^2+ influx upon KCl depolarisation ([1]; 1.5 μM, 45 mM KCl): significantly reduced; inhibition at 10 µM [1]: 43%; annulus crossing index in probe test [3]: higher annulus crossing index score; search path during training phase [3]: reduced search path; compound effect on reducing neurotoxicity in RAP1A silenced cells (RAP1A silenced cells): strongly reduced; effect of the compound on lowering toxicity in PDE6δ silenced cells (PDE6δ silenced cells): strongly reduced; TAU phosphorylation in brain extracts [4]: effectively reduced TAU phosphorylation; effect on TAU-induced toxicity (M17-TAU P301L cells): reduced toxicity; neuronal viability in Aβo treated neurons [5]: strongly rescued

Q: Which inhibition at 10 µM [1] does the source give for `O=C(NCCc1c[nH]c2ccc(F)cc12)c1cc(Cc2ccccc2F)on1` [Compound 7] here?
A: 56%

Q: What does the source list for `O=C(NCCc1c[nH]c2ccc(Cl)cc12)c1cc(Cc2cc(F)ccc2F)on1` [Compound A]?
A: interaction of Arl3 (non-prenylated interactor) with PDE6δ (RAP1A binding on PDE6δ): not impacted; interaction of RAP1A with PDE6δ (RAP1A binding on PDE6δ): specifically reduced

Q: How did the “effect of the compound on lowering toxicity in PDE6δ silenced cells” value (PDE6δ silenced cells) turn out when `c1ccc(Cn2c(-c3ccc(OC[C@H](C4CCNCC4)n4c(-c5ccccc5)nc5ccccc54)cc3)nc3ccccc32)cc1` [Deltarasin, reference compound] was run?
A: strongly reduced

Q: What about the “effect on TAU-induced toxicity” value (M17-TAU P301L cells) of the same compound?
A: lowered toxicity

Q: With `COC(=O)C1=C(C)NC(C)=C(C(=O)OC(C)C)C1c1cccc2nonc12` (stereo not shown) [isradepine] as the compound, how does the “effect on TAU-induced toxicity” value (M17-TAU P301L cells) read?
A: lowered toxicity
